# Measurements: patent US10738041B2, “Ferroportin inhibitors” (Vifor (International) AG, priority 2015, dated 2020)
# Tests used:
# human Fpn = molecular target: T1, human Fpn (Homo sapiens, UniProt Q9NP59); experiment: Biophysical Ferroportin-Hepcidin Binding Assay (fluorescence polarization); details: average of multiple measurements; 1 μM human Fpn, 20 nM TMR-hepcidin; read-out: FP IC50
# T1 construct: FLAG (C); made in house; host or cells: Pichia pastoris
# T1 sequence (Q9NP59 1-571): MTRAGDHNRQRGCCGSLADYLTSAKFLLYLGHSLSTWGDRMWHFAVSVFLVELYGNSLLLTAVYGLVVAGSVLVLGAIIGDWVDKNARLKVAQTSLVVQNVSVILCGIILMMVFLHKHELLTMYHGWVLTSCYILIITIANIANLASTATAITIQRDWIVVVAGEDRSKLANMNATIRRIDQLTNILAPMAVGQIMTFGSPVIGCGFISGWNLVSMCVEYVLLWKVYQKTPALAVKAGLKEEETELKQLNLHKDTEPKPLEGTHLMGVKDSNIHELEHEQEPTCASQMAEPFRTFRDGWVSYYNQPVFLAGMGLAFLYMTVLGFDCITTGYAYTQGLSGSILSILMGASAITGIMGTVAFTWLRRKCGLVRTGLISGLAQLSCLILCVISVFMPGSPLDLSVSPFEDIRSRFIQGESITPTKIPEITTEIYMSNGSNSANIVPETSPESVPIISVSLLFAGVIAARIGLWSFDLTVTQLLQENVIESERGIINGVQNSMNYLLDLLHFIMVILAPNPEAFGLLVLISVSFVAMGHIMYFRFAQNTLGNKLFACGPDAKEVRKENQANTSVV
# Method in brief: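 FP readout: a dose-dependent drop in TMR-hepcidin polarization (mP, from parallel and perpendicular emission) marked blocked binding to FLAG-tagged human Fpn purified from Pichia pastoris. Final levels were 1 μM Fpn and 20 nM TMR-hepcidin, with compound dilutions in duplicate, incubated 90 min at room temperature.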
# human Fpn-GFP fusion [1] = molecular target: T2, human Fpn-GFP fusion (Homo sapiens, UniProt Q9NP59); experiment: Inhibition of ferroportin mediated iron export activity in an iron response assay (BLAzer); assay type: cell-based; details: average of multiple measurements; HEK-293 cell line #354; read-out: BLAzer EC50
# T2 construct: expressed in transfected cells; host or cells: HEK-293 cell line #354 (derivative of HEK-293 Tet-ON Advanced, Clontech)
# T2 sequence (Q9NP59 1-571): T1 sequence (Q9NP59 1-571)
# Description: Intracellular iron levels are indirectly measured in this assay by monitoring the activity of a beta-lactamase (BLA) reporter gene fused to the human ferritin promoter and the associated iron regulatory element (IRE) contained within the 5′ untranslated region of the ferritin mRNA. Expression of ferroportin (Fpn) in such a cell line leads to iron efflux and lower iron levels as reflected by lower activity of the reporter gene. On the other hand, inhibition of Fpn-mediated iron efflux results in elevated cellular iron levels which is detected as increased reporter gene activity. Small molecular weight Fpn inhibitor compounds were tested for dose-dependent effects in this in vitro iron response assay as described below.
# The HEK-293 cell line #354 was generated by stable integration of (i) a human Fpn-GFP fusion construct inserted in a derivative of the doxycycline-inducible pTRE-Tight-BI plasmid (Clontech, Cat. 631068) and (ii) a human ferritin promoter-BLA reporter gene into a derivative of the HEK-293 Tet-ON Advanced cell line (Clontech). […] After overnight incubation, 10 μl/well of dilution series of the test compounds were added in quadruplicates and plates were further incubated overnight at 37° C. with 5% CQ. Cells were washed 3 times with HBSS leaving 25 μl per well. BLA activity was detected by adding 5 μl/well of the GeneBlazer reagent CCF4-AM (Invitrogen, Cat. K1085) to the cells. After incubation of the plates in the dark at 18° C. for 60 min., blue and green fluorescence signals were measured in a Safre2 fluorescence plate reader (Tecan) with excitation at 410 nm and emissions at 458 nm (blue) and 522 nm (green). The ratio of blue/green fluorescence as a measure for BLA activity was calculated and EC50 values were determined with the calculated blue/green fluorescence ratios as described for the hepcidin internalization assay.
# human Fpn-GFP fusion [2] = molecular target: T2, human Fpn-GFP fusion; experiment: Ferroportin Internalization and Degradation Assay (FACS); assay type: cell-based; details: average of multiple measurements, Fpn-GFP MFI, HEK-293 cell line #354, FACS; for DC50: read-out: EC50 ferroportin internalization and degradation
# Protocol: Growing HEK-293 #354 cells in doxycycline containing media induced expression of human Fpn-GFP fusion protein on the cell surface. […] Small molecular weight Fpn inhibitor compounds were tested for dose-dependent effects on the Fpn-GFP mean fluorescence intensity (MFI) on HEK-293 cell line #354, as described below. HEK #354 cells were harvested from ca. 80% confluent cultures, seeded at 0.6×10^6 (cells/ml in DMEM/F12 GlutaMAX™ medium (Invitrogen, Cat. 31331-028) containing 10% FBS (Clontech, Cat. 631106), 1% Penicillin-Streptomycin (Invitrogen, Cat. 15140-122), 200 μg/ml Hygromycin B (Invitrogen, Cat. 10687-010), Blasticidin 5 μg/ml, (Invitrogen, Cat. R210-01), 4 μg/ml doxycycline (Clontech, Cat. 631311), 50 μl per well of 384 well plates (Greiner; Cat. 781091) and grown at 37° C. with 5% CQ. After overnight incubation, 10 μl/well of dilution series of the test compounds were added in quadruplicates and plates were further incubated overnight at 37° C. with 5% CO2. Cells were washed once with FACS buffer (PBS containing 1% FBS, 2 mM EDTA and 0.05% NaN3), harvested in FACS buffer with 0.5 μg/ml propidium iodide (Sigma, Cat. P4864) and analyzed in a flow cytometer (CANTO™ II, BD Biosciences) equipped with high throughput sampler. Live HEK #354 cells were gated as propidium iodide negative population and analyzed for expression of Fpn-GFP.
structure (smiles),measurement,setting,value
O=C(NC1CCc2cccnc21)c1csc(CCNCc2nc3ccccc3[nH]2)n1 (centres unmarked) [Example 39],IC50,human Fpn,1340 nM
same,EC50,human Fpn-GFP fusion [1],2900 nM
O=C(NCc1ncccc1F)c1cnn(CCNCCc2nc3ccccc3[nH]2)c1 [Example 111],EC50,human Fpn-GFP fusion [2],75 nM
same,IC50,human Fpn,51 nM
same,EC50,human Fpn-GFP fusion [1],620 nM
Cc1oc(CCNCCc2nc3ccccc3[nH]2)nc1C(=O)NCc1ncccc1F [Example 230],EC50,human Fpn-GFP fusion [2],950 nM
same,IC50,human Fpn,58 nM
same,EC50,human Fpn-GFP fusion [1],6380 nM
O=C(NCc1ncccc1Cl)c1coc(CCNCc2nc3ccccc3[nH]2)n1 [Example 141],EC50,human Fpn-GFP fusion [2],290 nM
same,IC50,human Fpn,49 nM
same,EC50,human Fpn-GFP fusion [1],1110 nM
O=C(NCc1ncccc1F)c1cccc(CNCCc2nc3ccccc3[nH]2)c1 [Example 224],DC50,human Fpn-GFP fusion [2],1830 nM
same,IC50,human Fpn,201 nM
same,EC50,human Fpn-GFP fusion [1],8200 nM
O=C(NCc1ccccn1)c1coc(CCNCc2nc3ccccc3[nH]2)n1 [Example 137],EC50,human Fpn-GFP fusion [2],11100 nM
same,IC50,human Fpn,1040 nM
same,EC50,human Fpn-GFP fusion [1],5750 nM
O=C(NCc1ncccc1F)c1csc(CNCCc2nc3ccccc3[nH]2)n1 [Example 118],EC50,human Fpn-GFP fusion [2],4910 nM
same,IC50,human Fpn,250 nM
same,EC50,human Fpn-GFP fusion [1],2690 nM
O=C(NCc1ncccc1F)c1coc(CCNCCc2nc3c(F)cccc3[nH]2)n1 [Example 228],EC50,human Fpn-GFP fusion [2],460 nM
same,IC50,human Fpn,21 nM
same,EC50,human Fpn-GFP fusion [1],2120 nM
O=C(NCc1ncccc1Cl)c1cnn(CCNCc2nc3ccccc3[nH]2)c1 [Example 138],EC50,human Fpn-GFP fusion [2],678 nM
same,IC50,human Fpn,160 nM
same,EC50,human Fpn-GFP fusion [1],1720 nM
O=C(NCc1ncccc1F)c1coc(CCNCCc2nc3ccccc3[nH]2)n1 [Example 127],EC50,human Fpn-GFP fusion [2],81 nM
same,IC50,human Fpn,23 nM
same,EC50,human Fpn-GFP fusion [1],420 nM
O=C(NCc1ncccc1F)c1coc(CCNCCc2nc3cc(F)ccc3[nH]2)n1 [Example 250],EC50,human Fpn-GFP fusion [2],600 nM
same,IC50,human Fpn,19 nM
same,EC50,human Fpn-GFP fusion [1],460 nM
O=C(NCc1ncccc1F)c1csc(CCNCC(F)(F)c2nc3ccccc3[nH]2)n1 [Example 196],DC50,human Fpn-GFP fusion [2],24800 nM
same,IC50,human Fpn,870 nM
same,EC50,human Fpn-GFP fusion [1],12700 nM
O=C(NCc1ncccc1F)c1ncn(CCNCc2nc3ccccc3[nH]2)n1 [Example 169],EC50,human Fpn-GFP fusion [2],4120 nM
same,IC50,human Fpn,540 nM
same,EC50,human Fpn-GFP fusion [1],8230 nM
O=C(NCc1ncccc1F)c1csc(CCNCCc2nc3cc(F)ccc3[nH]2)n1 [Example 120],EC50,human Fpn-GFP fusion [2],530 nM
same,IC50,human Fpn,71 nM
same,EC50,human Fpn-GFP fusion [1],1600 nM
O=C(NCc1ncccc1F)c1coc(CCNCCc2nc3c(Cl)cccc3[nH]2)n1 [Example 226],EC50,human Fpn-GFP fusion [2],490 nM
same,IC50,human Fpn,26 nM
same,EC50,human Fpn-GFP fusion [1],2340 nM
O=C(NCc1ncccc1F)c1csc(CCCNCc2nc3ccccc3[nH]2)n1 [Example 134],EC50,human Fpn-GFP fusion [2],5190 nM
same,IC50,human Fpn,970 nM
same,EC50,human Fpn-GFP fusion [1],4090 nM
O=C(NCc1ncccc1F)c1coc(C2CN(CCc3nc4c(F)cccc4[nH]3)C2)n1 [Example 239],EC50,human Fpn-GFP fusion [2],320 nM
same,IC50,human Fpn,38 nM
same,EC50,human Fpn-GFP fusion [1],880 nM
O=C(NCc1ccccn1)c1csc(CCNCc2nc3ccccc3[nH]2)n1 [Example 12],IC50,human Fpn,860 nM
same,EC50,human Fpn-GFP fusion [1],8270 nM
O=C(NCc1ncccc1F)c1ncn(CCNCCc2nc3ccccc3[nH]2)n1 [Example 181],EC50,human Fpn-GFP fusion [2],930 nM
same,IC50,human Fpn,89 nM
same,EC50,human Fpn-GFP fusion [1],3720 nM
O=C(NCc1ncccc1F)c1nc(CCNCc2nc3ccccc3[nH]2)sc1Cl [Example 151],EC50,human Fpn-GFP fusion [2],523 nM
same,IC50,human Fpn,89 nM
same,EC50,human Fpn-GFP fusion [1],720 nM
O=C(NCc1ncccc1F)c1csc(CCN(CCc2nc3ccccc3[nH]2)CCc2nc3ccccc3[nH]2)n1 [Example 152],EC50,human Fpn-GFP fusion [2],71 nM
same,IC50,human Fpn,23 nM
same,EC50,human Fpn-GFP fusion [1],170 nM
O=C(NCc1cccnn1)c1nc(CCNCc2nc3ccccc3[nH]2)sc1Cl [Example 161],EC50,human Fpn-GFP fusion [2],5300 nM
same,IC50,human Fpn,260 nM
same,EC50,human Fpn-GFP fusion [1],17200 nM
O=C(NCc1cccnn1)c1csc(CCNCCc2nc3ccccc3[nH]2)n1 [Example 122],EC50,human Fpn-GFP fusion [2],3020 nM
same,IC50,human Fpn,214 nM
same,EC50,human Fpn-GFP fusion [1],4330 nM
O=C(NCc1ncccc1F)c1csc(CCNCCc2nc3c(F)cccc3[nH]2)n1 [Example 243],EC50,human Fpn-GFP fusion [2],510 nM
same,IC50,human Fpn,34 nM
same,EC50,human Fpn-GFP fusion [1],1400 nM
O=C(NCc1ncccc1F)c1nc(CCNCCc2nc3ccccc3[nH]2)sc1Cl [Example 154],EC50,human Fpn-GFP fusion [2],130 nM
same,IC50,human Fpn,30 nM
same,EC50,human Fpn-GFP fusion [1],740 nM
O=C(NCc1ncccc1F)c1coc(C2CN(CCc3nc4ccccc4[nH]3)C2)n1 [Example 208],EC50,human Fpn-GFP fusion [2],150 nM
same,IC50,human Fpn,19 nM
same,EC50,human Fpn-GFP fusion [1],500 nM
O=C(NCc1ncccc1F)c1csc(CCNCCc2nc3ccccc3[nH]2)n1 [Example 94],EC50,human Fpn-GFP fusion [2],220 nM
same,IC50,human Fpn,44 nM
same,EC50,human Fpn-GFP fusion [1],530 nM
O=C(NCc1ncccc1F)c1coc(CCNCCc2nc3c(F)cc(F)cc3[nH]2)n1 [Example 249],EC50,human Fpn-GFP fusion [2],950 nM
same,IC50,human Fpn,44 nM
same,EC50,human Fpn-GFP fusion [1],1550 nM
O=C(NC1CCc2cccnc21)c1csc(CCNCCc2nc3ccccc3[nH]2)n1 (centres unmarked) [Example 158],EC50,human Fpn-GFP fusion [2],325 nM
same,IC50,human Fpn,41 nM
same,EC50,human Fpn-GFP fusion [1],620 nM
Cc1cnccc1CNC(=O)c1csc(CCNCc2nc3ccccc3[nH]2)n1 [Example 90],IC50,human Fpn,418 nM
same,EC50,human Fpn-GFP fusion [1],4030 nM
O=C(NCc1ncccc1F)c1cncc(C2CN(CCc3nc4ccccc4[nH]3)C2)c1 [compound 237],IC50,human Fpn,66 nM
same,EC50,human Fpn-GFP fusion [1],2460 nM
